# Measurements taken from patent US20240199651A1, “ANTIBACTERIAL COMPOUNDS” (JANSSEN SCIENCES IRELAND UNLIMITED COMPANY, priority 2021, published 2024).
# Read-outs that look alike come from different tables or passages of the source.
# What was measured:
# [1] = system: Mycobacterium tuberculosis strain EH4.0 expressing green-fluorescent protein (GFP); test: microbe, parasite or virus in culture; type: cell-based
# [2] = Mitochondrial toxicity (Glu/Gal) assay; type: cell-based; details: for Score: mitotoxicity score, Glu/Gal assay; for Δ IC50, glu/IC50, gal: ratio IC50 glu / IC50 gal
# Text: (§1) The compounds of the invention/examples may have advantages associated with in vitro potency, kill kinetics (i.e. bactericidal effect) in vitro, PK properties, food effect, safety/toxicity (including liver toxicity, coagulation, 5-LO oxygenase), metabolic stability, Ames II negativity, MNT negativity, aqueous based solubility (and ability to formulate) and/or cardiovascular effect e.g. on animals (e.g. anesthetized guinea pig). Data that is generated/calculated may be obtained using standard methods/assays, for instance that are available in the literature or which may be performed by a supplier (e.g. Microsomal Stability Assay—Cyprotex, Mitochondrial toxicity (Glu/Gal) assay—Cyprotex, as well as literature CYP cocktail inhibition assays). GSH can be measured (reactive metabolites, glucuronidation) to observe if a dihydrodiol is observed by LCMS (fragmentation ions), which would correspond to a dihydroxylation on the core heterocycle.
# [3] = LM CLint (microsomal stability), mouse; type: in vitro ADME; details: 1 μm; for microsomal CLint at 1 µM: microsomes, read-out: CLint Microsomes, Mouse (m)
# Text: as §1
# (§2) CLint Microsomes (μL/Min/Mg) in Dog (d), Human (h), Mouse (m) and Rat (r) (all at 1 μm)
# [4] = Chemical stability testing (LCMS); type: physicochemical
# Description: • Add 3 μl of a 10 mM DMSO stock solution to 1 ml of the following solvents in a 1.5 ml HPLC vial. • DMSO (reference solution) • H2O/Acetonitril 1/1 (assay solution) • 0.1N HCl/Acetonitril 1/1 (assay solution) • Mix well, […] LCMS • Compare the chromatograms of the two assay solutions with the reference solution and report the additional peaks as degradation peaks
# [5] = LM CLint (microsomal stability), human; type: in vitro ADME; details: for microsomal CLint at 1 µM: liver microsomes, read-out: CLint Microsomes, Human (h); for CLint Microsomes, Human (h): 1 μm
# Text: as §1, §2
# [6] = LM CLint (microsomal stability), dog; type: in vitro ADME; details: microsomes, 1 μm, read-out: CLint Microsomes, Dog (d)
# Text: as §1, §2
# [7] = LM CLint (microsomal stability), rat; type: in vitro ADME; details: microsomes, 1 μm, read-out: CLint Microsomes, Rat (r)
# Text: as §1, §2
# [8] = Mycobacterium tuberculosis, Test 1 (and/or Test 2), M. tuberculosis
# [9] = galactose medium (Glu/Gal mitotoxicity assay), read-out: IC50, gal
# [10] = glucose medium (Glu/Gal mitotoxicity assay), read-out: IC50, glu
SMILES,"IC50 ([2]; read-out: IC50, gal)","IC50 ([2]; read-out: IC50, glu)",microsomal CLint at 1 µM [3],microsomal CLint at 1 µM [5],"IC50 [2, 9]","IC50 [2, 10]","AC50 [1, 8]",further results
CCc1nc2cc(NC)c(Cl)cn2c1C(=O)NCc1ccc(-c2nc3n(n2)CCN(S(=O)(=O)C(F)(F)F)C3)c(F)c1 [Compound 13],23.5 µM,29.5 µM,,,,,,"IC50 [1, 8]: > 0.5 µM; Score [2]: [x]1; Δ IC50, glu/IC50, gal [2]: 1.25"
CCc1nc2ccc(Cl)cn2c1C(=O)NCc1cnc(-c2nc3n(n2)CCN(S(=O)(=O)C(F)(F)F)C3)c(F)c1 [Compound 15],> 200 µM,> 200 µM,50.6 µL/min/mg,16.2 µL/min/mg,,,,"chemical stability, % by LCMS ([4]; 72 h, 30 µM): 97.03%; chemical stability, % by LCMS ([4]; 72 h, 30 µM, pH 1.6): 97.49%"
CCc1nc2nc3c(cn2c1C(=O)NCc1ccc(-c2nc4n(n2)CCN(S(=O)(=O)C(F)(F)F)C4)c(F)c1)CCOC3 [Compound 18],184 µM,> 200 µM,36.9 µL/min/mg,20.1 µL/min/mg,,,,"Score [2]: [x]1; Δ IC50, glu/IC50, gal [2]: >1.09"
CCc1nc2cc(Cl)c(C)cn2c1C(=O)NCc1ccc(-c2nc3n(n2)CCN(S(=O)(=O)C(F)(F)F)C3)c(F)c1 [Compound 19],,,,,> 25 µM,> 25 µM,,"IC50 [1, 8]: 0.331 µM"
CCc1nc2ccc(C)cn2c1C(=O)NCc1ccc(-c2nc3n(n2)CCN(S(=O)(=O)C(F)(F)F)C3)cc1 [Compound 24],> 200 µM,> 200 µM,76.3 µL/min/mg,169 µL/min/mg,,,,"chemical stability, % by LCMS ([4]; 0 h, 30 µM): 100%; chemical stability, % by LCMS ([4]; 0 h, 30 µM, pH 1.6): 100%; chemical stability, % by LCMS ([4]; 0 h, 30 µM, pH 9): 89.46%; chemical stability, % by LCMS ([4]; 48 h, 30 µM): 100%; chemical stability, % by LCMS ([4]; 48 h, 30 µM, pH 1.6): 100%; chemical stability, % by LCMS ([4]; 48 h, 30 µM, pH 9): 43.8%"
CCc1nc2ncc(C)cn2c1C(=O)NCc1ccc(-c2cc3n(n2)CCN(S(=O)(=O)C(F)(F)F)C3)cc1 [Compound 44],> 200 µM,> 200 µM,20 µL/min/mg,176 µL/min/mg,,,,"chemical stability, % by LCMS ([4]; 48 h, 30 µM): 100%; chemical stability, % by LCMS ([4]; 48 h, 30 µM, pH 1.6): 100%"
CCc1nc2ncc(C)cn2c1C(=O)NCc1ccc(-c2nc3n(n2)CCN(S(=O)(=O)N2CCCC2)C3)cc1 [Compound 47],> 200 µM,> 200 µM,13.9 µL/min/mg,58.5 µL/min/mg,,,,"chemical stability, % by LCMS ([4]; 48 h, 30 µM): 99%; chemical stability, % by LCMS ([4]; 48 h, 30 µM, pH 1.6): 100%"
CCc1nc2ncc(C)cn2c1C(=O)NCCc1ccc(-c2nc3n(n2)CCN(S(=O)(=O)C(F)(F)F)C3)cc1 [Compound 66],> 200 µM,> 200 µM,92.3 µL/min/mg,39.6 µL/min/mg,,,,"IC50 [1, 8]: 0.269 µM; chemical stability, % by LCMS ([4]; 0 h, 30 µM): 91%; chemical stability, % by LCMS ([4]; 48 h, 30 µM): 98%; chemical stability, % by LCMS ([4]; 48 h, 30 µM, pH 1.6): 98%"
CCc1nc2ncc(C)cn2c1C(=O)NC1(c2ccc(-c3nc4n(n3)CCN(S(=O)(=O)C(F)(F)F)C4)cc2)CC1 [Compound 68],> 100 µM,> 100 µM,,,,,,"IC50 [1, 8]: > 0.501 µM"
CCc1nc2ncc(C)cn2c1C(=O)NCc1cccc(Cc2nc3n(n2)CCN(S(=O)(=O)C(F)(F)F)C3)c1 [Compound 71],> 200 µM,> 200 µM,,,,,,"IC50 [1, 8]: > 0.501 µM"
CCc1nc2ncc(C)cn2c1C(=O)NCc1coc(-c2nc3n(n2)CCN(S(=O)(=O)C(F)(F)F)C3)n1 [Compound 72],> 200 µM,> 200 µM,,,,,,"IC50 [1, 8]: > 0.501 µM"
CCc1nc2ncc(C)cn2c1C(=O)NCc1ccc(-c2cn3c(n2)CN(S(=O)(=O)C(F)(F)F)CC3)c(F)c1 [Compound 80],,,,,> 200 µM,> 200 µM,,"pIC50 [1]: 8.06; CLint Microsomes, Mouse (m) [3]: 13.2 μL/Min/Mg; chemical stability, % by LCMS ([4]; ACN/0.1N HCl (pH 1.6; 0 hr, rt)): 100%; chemical stability, % by LCMS ([4]; ACN/0.1N HCl (pH 1.6; 48 hr, rt)): 100%; chemical stability, % by LCMS ([4]; ACN/0.1N NaOH (pH 9-10; 0 hr, rt)): 76.8%; chemical stability, % by LCMS ([4]; ACN/0.1N NaOH (pH 9-10; 48 hr, rt)): 16.8%; chemical stability, % by LCMS ([4]; DMSO (0 hr, rt)): 100%; chemical stability, % by LCMS ([4]; DMSO (48 hr, rt)): 100%; CLint Microsomes, Human (h) [5]: 39.8 μL/Min/Mg"
CCc1nc2ccc(C)cn2c1C(=O)NCc1ccc(-c2cc3n(n2)CCN(S(=O)(=O)C(F)(F)F)C3)cc1 [Compound 81],> 200 µM,> 200 µM,74.8 µL/min/mg,> 347 µL/min/mg,,,,"microsomal CLint at 1 µM [6]: 189 µL/min/mg; chemical stability, % by LCMS ([4]; 0 h, 30 µM): 95%; chemical stability, % by LCMS ([4]; 48 h, 30 µM): 100%; chemical stability, % by LCMS ([4]; 48 h, 30 µM, pH 1.6): 100%; microsomal CLint at 1 µM [7]: 80.7 µL/min/mg"
CCc1nc2ncc(C)cn2c1C(=O)NCc1ccc(-c2cc3n(n2)CCN(S(=O)(=O)C(F)(F)F)C3)c(C)c1 [Compound 84],,,,,62.5 µM,> 200 µM,,"AC50 [1]: 0.0076 µM; CLint Microsomes, Mouse (m) [3]: 21.2 μL/Min/Mg; Δ IC50, glu/IC50, gal [2]: >3.2; CLint Microsomes, Human (h) [5]: 205 μL/Min/Mg"
CCc1nc2ncc(C)cn2c1C(=O)NCc1ccc(-c2nn3c(c2C)CN(S(=O)(=O)C(F)(F)F)CC3)cc1 [Compound 85],,,,,30.1 µM,> 200 µM,,"AC50 ([1]; Test 1 (and/or Test 2), M. tuberculosis): 0.018 µM; Score [2]: [x]3; Δ IC50, glu/IC50, gal [2]: >6.65"
CCc1nc2ncc(C)cn2c1C(=O)NCc1ccc(-c2nc3n(c2C)CCN(S(=O)(=O)C(F)(F)F)C3)cc1 [Compound 86],> 100 µM,> 100 µM,,,,,0.03 µM,
CCc1nc2ncc(C)cn2c1C(=O)NCc1ccc(-c2nn3c(c2C)CN(S(=O)(=O)C(F)(F)F)CC3)c(F)c1 [Compound 87],,,,,25.4 µM,85.8 µM,,"AC50 [1]: 0.036 µM; Δ IC50, glu/IC50, gal [2]: 3.38"
CCc1nc2ncc(C)cn2c1C(=O)NCc1cccc(-c2cnn3c2CN(S(=O)(=O)C(F)(F)F)CC3)c1 [Compound 92],133 µM,195 µM,,,,,> 0.5 µM,"Score [2]: [x]1; Δ IC50, glu/IC50, gal [2]: 1.47"
Cc1cnc2nc(C3CC3)c(C(=O)NCc3ccc(-c4cn5c(n4)CN(S(=O)(=O)C(F)(F)F)CC5)cc3)n2c1 [Compound 94],> 200 µM,> 200 µM,18.1 µL/min/mg,98.1 µL/min/mg,,,0.063 µM,
Cc1cnc2nc(C3CC3)c(C(=O)NCc3ccc(-c4nc5n(n4)CCN(S(=O)(=O)C(F)(F)F)C5)c(C)c3)n2c1 [Compound 98],97.8 µM,177 µM,26.9 µL/min/mg,51.8 µL/min/mg,,,0.017 µM,"Score [2]: [x]1; Δ IC50, glu/IC50, gal [2]: 1.81"
O=C(NCc1ccc(-c2cc3n(n2)CCN(S(=O)(=O)C(F)(F)F)C3)cc1)c1c(C2CC2)nc2ncc(Cl)cn12 [Compound 104],,,,,> 50 µM,> 50 µM,0.11 µM,
Cc1cnc2nc(C3CC3)c(C(=O)NCc3ccc(-c4cc5n(n4)CCN(S(=O)(=O)C(C)C)C5)cc3)n2c1 [Compound 106],> 100 µM,> 100 µM,83.4 µL/min/mg,111 µL/min/mg,,,,
Cc1cnc2nc(C3CC3)c(C(=O)NCc3ccc(-c4cn5c(n4)CN(S(=O)(=O)C(F)(F)F)CC5)c(F)c3)n2c1 [Compound 112],,,,,> 100 µM,> 100 µM,0.0095 µM,
Cc1cnc2nc(C(F)(F)F)c(C(=O)NCc3ccc(-c4nc5n(n4)CCN(S(=O)(=O)C(F)(F)F)C5)cc3)n2c1 [Compound 113],,,,,> 100 µM,> 100 µM,0.032 µM,
Cc1cnc2nc(C(F)(F)F)c(C(=O)NCc3ccc(-c4cc5n(n4)CCN(S(=O)(=O)C(F)(F)F)C5)cc3)n2c1 [Compound 114],,,,,> 12.5 µM,> 12.5 µM,0.0098 µM,
O=C(NCc1ccc(-c2nc3n(n2)CCN(S(=O)(=O)C(F)(F)F)C3)c(F)c1)c1c(C2CC2)nc2ccccn12 [Compound 123],,,,,> 100 µM,> 100 µM,0.018 µM,
CCc1nc2ncc(C)cn2c1C(=O)NCc1ccc(-c2cc3n(n2)CCN(S(=O)(=O)C(F)(F)F)C3)nc1 [Compound 127],> 200 µM,> 200 µM,9.29 µL/min/mg,31.5 µL/min/mg,,,0.049 µM,
CCc1nc2ncc(C)cn2c1C(=O)NCc1cnc(-c2cc3n(n2)CCN(S(=O)(=O)C(F)(F)F)C3)c(C)c1 [Compound 129],> 200 µM,> 200 µM,29.4 µL/min/mg,50.4 µL/min/mg,,,,
